One data set addresses T1, HDAC7 (Homo sapiens, UniProt Q8WUI4).
T1 construct: The full-length human HDACs were recombinantly expressed and purified from SF9 insect cells; host or cells: SF9 insect cells
Briefly: HDAC EMSA activity assay (Nanosyn). The format is biochemical. As to the method: (§1) The full-length human HDACs were recombinantly expressed and purified from SF9 insect cells. All compounds were serially prediluted in DMSO from a top concentration of 10 or 1 μM and introduced into the 384-well plates through an acoustic dispenser (Labcyte550) into the reaction buffer (100 mM HEPES, pH 7.5, 25 mM KCl, 0.1% BSA, 0.01% Triton X-100, and enzyme). The total concentration of DMSO was 1% in all wells. The deacetylation reaction was initiated by introduction of a FAM-labeled acetylated peptide substrate. The reaction was monitored through the change in the relative fluorescence intensity of the substrate and product peaks. The activity was determined as the product sum ratio (PSR): P/(S + P), where P = product peak height and S = substrate peak height. […] Inhibition curves (Pinh vs inhibitor concentration) were fitted by a four-parameter sigmoid dose–response model using XLfit software (IDBS) to determine the IC50 values.

The target in a further data set is T2, HDAC1 (Homo sapiens, UniProt Q13547).
T2 construct: The full-length human HDACs were recombinantly expressed and purified from SF9 insect cells; host or cells: SF9 insect cells
T2 sequence (Q13547 whole entry): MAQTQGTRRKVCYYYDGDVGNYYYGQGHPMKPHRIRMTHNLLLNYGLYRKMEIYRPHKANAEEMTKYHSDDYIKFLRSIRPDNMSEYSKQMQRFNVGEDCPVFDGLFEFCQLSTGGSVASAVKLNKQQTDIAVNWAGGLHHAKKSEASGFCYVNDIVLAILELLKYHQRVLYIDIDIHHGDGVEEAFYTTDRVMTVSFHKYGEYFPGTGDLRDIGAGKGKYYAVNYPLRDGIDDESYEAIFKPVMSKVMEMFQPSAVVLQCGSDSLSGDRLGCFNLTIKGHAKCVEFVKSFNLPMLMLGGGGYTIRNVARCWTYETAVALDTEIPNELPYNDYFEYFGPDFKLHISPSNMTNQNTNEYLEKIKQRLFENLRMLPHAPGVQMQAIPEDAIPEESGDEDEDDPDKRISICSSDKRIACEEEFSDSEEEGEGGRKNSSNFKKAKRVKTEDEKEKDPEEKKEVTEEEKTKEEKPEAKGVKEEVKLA
Briefly: HDAC EMSA activity assay (Nanosyn). The format is biochemical. As to the method:
as §1
A general note: In EMSA bound probe runs differently from free probe, usually more slowly.

A further data set deals with T3, HDAC9 (Homo sapiens, UniProt Q9UKV0).
T3 construct: The full-length human HDACs were recombinantly expressed and purified from SF9 insect cells; host or cells: SF9 insect cells
T3 sequence (Q9UKV0 whole entry): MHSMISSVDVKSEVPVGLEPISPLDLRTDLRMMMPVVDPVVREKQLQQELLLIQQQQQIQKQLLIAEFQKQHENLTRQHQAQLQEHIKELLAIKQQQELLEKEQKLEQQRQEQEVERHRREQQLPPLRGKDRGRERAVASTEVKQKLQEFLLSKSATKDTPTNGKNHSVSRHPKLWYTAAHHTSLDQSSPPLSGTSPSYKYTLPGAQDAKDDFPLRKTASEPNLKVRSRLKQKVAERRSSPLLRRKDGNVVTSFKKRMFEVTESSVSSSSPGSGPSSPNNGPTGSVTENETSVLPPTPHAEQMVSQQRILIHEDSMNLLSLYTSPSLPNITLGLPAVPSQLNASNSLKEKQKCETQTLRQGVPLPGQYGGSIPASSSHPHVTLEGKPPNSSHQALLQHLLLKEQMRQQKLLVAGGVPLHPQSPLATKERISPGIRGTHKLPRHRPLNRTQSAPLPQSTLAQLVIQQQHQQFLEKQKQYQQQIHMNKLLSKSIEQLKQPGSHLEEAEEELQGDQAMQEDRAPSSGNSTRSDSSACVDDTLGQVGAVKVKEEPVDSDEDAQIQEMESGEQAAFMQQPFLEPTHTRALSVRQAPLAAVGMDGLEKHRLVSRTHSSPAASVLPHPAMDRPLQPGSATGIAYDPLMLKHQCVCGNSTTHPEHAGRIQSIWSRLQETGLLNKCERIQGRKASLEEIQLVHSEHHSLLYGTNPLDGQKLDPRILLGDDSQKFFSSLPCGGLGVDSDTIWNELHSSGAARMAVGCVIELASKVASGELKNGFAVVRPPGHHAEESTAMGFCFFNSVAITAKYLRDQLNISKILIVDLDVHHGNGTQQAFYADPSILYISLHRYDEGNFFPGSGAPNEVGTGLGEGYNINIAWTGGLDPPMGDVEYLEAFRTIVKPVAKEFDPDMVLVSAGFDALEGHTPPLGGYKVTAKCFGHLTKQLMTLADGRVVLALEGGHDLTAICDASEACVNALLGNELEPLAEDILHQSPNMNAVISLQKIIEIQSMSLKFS
Briefly: HDAC EMSA activity assay (Nanosyn). The format is biochemical. As to the method: as §1

The target of another data set is T4, HDAC5 (Homo sapiens, UniProt Q9UQL6).
T4 construct: The full-length human HDACs were recombinantly expressed and purified from SF9 insect cells; host or cells: SF9 insect cells
T4 sequence (Q9UQL6 whole entry): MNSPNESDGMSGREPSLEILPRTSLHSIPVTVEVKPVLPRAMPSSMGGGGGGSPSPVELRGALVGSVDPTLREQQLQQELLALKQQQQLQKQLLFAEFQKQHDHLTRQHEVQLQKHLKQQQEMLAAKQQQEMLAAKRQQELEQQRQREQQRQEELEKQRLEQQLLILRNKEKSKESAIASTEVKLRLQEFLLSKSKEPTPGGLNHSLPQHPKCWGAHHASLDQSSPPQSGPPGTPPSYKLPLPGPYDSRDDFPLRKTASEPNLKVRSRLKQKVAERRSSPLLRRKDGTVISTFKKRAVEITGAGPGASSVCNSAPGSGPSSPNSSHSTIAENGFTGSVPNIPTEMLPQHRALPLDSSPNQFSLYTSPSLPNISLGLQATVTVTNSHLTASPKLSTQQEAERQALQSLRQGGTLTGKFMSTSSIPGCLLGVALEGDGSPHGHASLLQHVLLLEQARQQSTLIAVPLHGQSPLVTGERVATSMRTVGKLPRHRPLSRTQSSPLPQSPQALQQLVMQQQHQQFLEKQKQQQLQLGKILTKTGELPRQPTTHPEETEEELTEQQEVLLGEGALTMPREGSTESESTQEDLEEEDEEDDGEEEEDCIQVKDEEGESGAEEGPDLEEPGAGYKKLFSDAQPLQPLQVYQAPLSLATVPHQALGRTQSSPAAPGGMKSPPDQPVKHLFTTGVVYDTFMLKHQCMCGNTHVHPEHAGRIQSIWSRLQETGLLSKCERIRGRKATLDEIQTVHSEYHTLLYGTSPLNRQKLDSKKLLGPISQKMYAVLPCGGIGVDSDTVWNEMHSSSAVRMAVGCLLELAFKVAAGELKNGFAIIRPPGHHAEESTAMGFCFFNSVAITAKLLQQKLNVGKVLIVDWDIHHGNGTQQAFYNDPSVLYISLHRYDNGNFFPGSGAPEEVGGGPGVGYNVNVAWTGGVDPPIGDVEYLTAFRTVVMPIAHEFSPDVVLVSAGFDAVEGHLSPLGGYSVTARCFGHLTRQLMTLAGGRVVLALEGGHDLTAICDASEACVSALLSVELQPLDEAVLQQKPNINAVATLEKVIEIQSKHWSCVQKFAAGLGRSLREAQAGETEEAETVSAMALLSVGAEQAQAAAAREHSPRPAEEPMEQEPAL
Briefly: HDAC EMSA activity assay (Nanosyn). The format is biochemical. As to the method:
as §1

The next data set concerns the target T5, HDAC10 (Homo sapiens, UniProt Q969S8).
T5 construct: The full-length human HDACs were recombinantly expressed and purified from SF9 insect cells; host or cells: SF9 insect cells
Briefly: HDAC EMSA activity assay (Nanosyn). It is filed as biochemical. As to the method: as §1

The test system of the next data set is acetylated α-tubulin. Briefly: Western blot in MV4-11 cells. It is filed as cell-based. The note with it: MV4-11, 6 h, higher inhibitor concentrations. As to the method: (§2) Briefly, MV4-11 cells were incubated with inhibitors prior to cell lysis with radioimmunoprecipitation assay (RIPA) buffer (20 mM Tris pH 7.4, 150 mM NaCl, 0.5% deoxycholate, 1% Triton X-100, and 0.1% sodium dodecyl sulfate (SDS)). Total protein content was determined through a BCA assay (ThermoFisher), resolved via a 4–20% polyacrylamide SDS gel, and transferred to a nitrocellulose membrane (Bio-Rad). The membranes were blocked with a 5% solution (skimmed milk powder in PBS-T). This was followed by incubation at 4 °C (overnight) with the following antibodies: acetylated α-tubulin mouse monoclonal (MABT868, EMD Millipore), acetylated histone H3 (Ac-Lys18, 07–354, Sigma), PARP-1 (ab227244, Abcam), apoptosis Western blot cocktail (136812, Abcam), cleaved PARP-1 (ab32561, Abcam), and HSC70 (sc-7298, Santa Cruz). Following overnight incubation, horseradish peroxidase (HRP)-conjugated goat anti-mouse IgG secondary antibody (7076, Cell Signaling) or HRP-linked anti-rabbit IgG secondary antibody (7074, Cell Signaling) was applied to the membrane in a 1:5000 dilution. The bands were visualized using clarity Western ECL substrate luminal/enhancer solution and peroxide solution. Western blotting analysis was carried out using Image lab software (Bio-Rad).[47],[50],[70]
(In general: A western blot detects proteins with antibodies after separation by electrophoresis.)

The target of the next data set is T6, HDAC2 (Homo sapiens, UniProt Q92769).
T6 construct: The full-length human HDACs were recombinantly expressed and purified from SF9 insect cells; host or cells: SF9 insect cells
T6 sequence (Q92769 whole entry): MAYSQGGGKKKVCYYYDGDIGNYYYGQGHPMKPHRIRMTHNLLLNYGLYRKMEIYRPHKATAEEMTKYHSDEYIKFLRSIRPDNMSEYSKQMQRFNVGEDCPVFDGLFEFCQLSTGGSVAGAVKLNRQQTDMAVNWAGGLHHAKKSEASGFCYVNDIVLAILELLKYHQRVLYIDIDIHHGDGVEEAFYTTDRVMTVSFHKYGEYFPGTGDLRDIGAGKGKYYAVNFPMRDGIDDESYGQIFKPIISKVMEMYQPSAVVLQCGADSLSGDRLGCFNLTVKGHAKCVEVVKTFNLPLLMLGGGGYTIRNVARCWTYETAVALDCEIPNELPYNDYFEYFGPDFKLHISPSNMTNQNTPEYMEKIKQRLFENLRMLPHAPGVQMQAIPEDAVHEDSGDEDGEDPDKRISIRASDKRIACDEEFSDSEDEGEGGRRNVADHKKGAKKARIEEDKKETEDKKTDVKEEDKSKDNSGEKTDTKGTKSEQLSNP
Briefly: HDAC EMSA activity assay (Nanosyn). The format is biochemical.

The test system of the next data set is acetylation of α-tubulin. Briefly: Immunofluorescence assay in HeLa cells. The format is cell-based. The note with it: 6 h, increasing doses. As to the method:
(§3) HeLa cells were plated to subconfluency on a 96-well plate (clear bottom black from Fisher Scientific). As above, inhibitors were introduced following 24 h. The cells were washed with 1× PBS, fixed with 4% formaldehyde (Millipore Sigma), permeabilized with 1% Triton X-100 (Millipore Sigma), and blocked in 5% bovine serum albumin (BSA) (BioShop) for 1 h at room temperature. Following this treatment, the cells were incubated in a cocktail composed of acetylated α-tubulin mouse monoclonal (1:100 dilution, MD Millipore) and acetylated histone H3 (1:50 dilution, Ac-Lys18, Sigma) antibodies. Secondary antibodies anti-mouse Alexa Fluor 647 and anti-rabbit Alexa Fluor 488 were used for immunofluorescent detection. Cells were counterstained for nucleic acids using 4′,6-diamidino-2-phenylindole (DAPI) (ThermoFisher Scientific). The cells were imaged with a Cytation S63 spectrophotometer and the fluorescence intensity was determined using ImageJ (n = 3). Two-way ANOVA with Tukey’s multiple comparisons test were performed using GraphPad Prism 6.0 (GraphPad Software Inc.). A p-value ≤ 0.05 was considered significant.

The test system of data set [1] is acetylation of histone H3. Briefly: Immunofluorescence assay in HeLa cells. The note with it: 6 h, increasing doses. It is filed as cell-based. As to the method:
as §3

Data set [2] has as its system cleavage of PARP-1 and Caspase-3. Briefly: Western blot of apoptosis markers in MV4-11 cells. It is filed as cell-based. The note with it: MV4-11, 6 h, 0.5 μM. As to the method:
as §2

Data set [3] in a line: In vitro stability in mouse hepatocytes. The format is in vitro ADME. As to the method: The inhibitors (and controls) were formulated to concentrations of 100 μM in 50% acetonitrile/50% water. The medium (William’s E Medium supplemented with GlutaMAX) and hepatocyte thawing medium were allowed to reach room temperature and the hepatocytes and thawing medium and centrifuged at 100 g for 10 min. The supernatant was removed, and hepatocytes resuspended in the incubation medium (∼1.5 × 10^6 cells/mL). The cells were diluted to 0.5 × 10^6 viable cells/mL. A volume of 198 μL of hepatocytes was transferred to a 96-well noncoated plate and incubated at 37 °C for 10 min. Following this, 2 μL of the 100 μM test compounds or positive control was transferred into respective wells to start the reaction. At different time points (0, 15, 30, 60, 90, and 120 min), 25 μL aliquots were mixed with 6 volumes (150 μL) of acetonitrile containing internal standard, IS (100 nM alprazolam, 200 nM labetalol, 200 nM caffeine, and 200 nM diclofenac) to terminate the reaction. Samples were vortexed for 5 min and centrifuged for 45 min at 3220g, diluted by ultrapure water, followed by LC/MS/MS analysis. The in vitro half-life (T1/2) was determined by regression analysis of the percent parent disappearance vs time curve (T1/2 = 0.693/k) using Microsoft Excel.

For a further data set, the system named is MRC-9. Briefly: Cytotoxicity assay (Cell Titer-Blue, 72 h). The format is cell-based. The conditions noted are these: MRC-9 (healthy fibroblasts); read-out: In cellulo IC50 MRC-9. For orientation: The colour change of resazurin is a common sign of viable cells or microbes.
The mark [4] stands for this setting: read-out: Stability in mouse hepatocytes t1/2.

SMILES strings stand for the structures.

T1 sequence (Q8WUI4 whole entry): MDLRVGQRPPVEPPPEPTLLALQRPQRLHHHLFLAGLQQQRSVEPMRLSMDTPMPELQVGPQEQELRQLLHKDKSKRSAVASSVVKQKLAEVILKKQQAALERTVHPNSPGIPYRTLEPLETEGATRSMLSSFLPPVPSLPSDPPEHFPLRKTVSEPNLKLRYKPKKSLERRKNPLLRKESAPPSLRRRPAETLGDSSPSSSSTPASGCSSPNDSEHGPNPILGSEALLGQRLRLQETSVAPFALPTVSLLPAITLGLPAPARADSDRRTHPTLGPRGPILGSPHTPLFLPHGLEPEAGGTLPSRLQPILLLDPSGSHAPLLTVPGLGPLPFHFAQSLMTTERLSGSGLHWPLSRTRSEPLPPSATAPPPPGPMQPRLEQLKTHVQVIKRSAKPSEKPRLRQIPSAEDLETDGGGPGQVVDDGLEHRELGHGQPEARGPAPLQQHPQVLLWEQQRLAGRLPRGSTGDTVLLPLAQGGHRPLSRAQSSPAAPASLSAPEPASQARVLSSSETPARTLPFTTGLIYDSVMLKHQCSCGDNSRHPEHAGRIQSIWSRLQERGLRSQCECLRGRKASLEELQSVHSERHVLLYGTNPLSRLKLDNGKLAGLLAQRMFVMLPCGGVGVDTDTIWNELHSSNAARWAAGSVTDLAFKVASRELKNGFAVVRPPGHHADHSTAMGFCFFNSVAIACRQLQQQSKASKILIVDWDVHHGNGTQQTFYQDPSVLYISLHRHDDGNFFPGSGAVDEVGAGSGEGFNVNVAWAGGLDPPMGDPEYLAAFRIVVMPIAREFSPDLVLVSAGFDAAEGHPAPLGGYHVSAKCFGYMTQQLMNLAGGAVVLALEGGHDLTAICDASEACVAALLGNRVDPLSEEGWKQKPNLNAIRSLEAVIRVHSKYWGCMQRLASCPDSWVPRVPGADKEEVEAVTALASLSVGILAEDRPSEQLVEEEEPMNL
T5 sequence (Q969S8 whole entry): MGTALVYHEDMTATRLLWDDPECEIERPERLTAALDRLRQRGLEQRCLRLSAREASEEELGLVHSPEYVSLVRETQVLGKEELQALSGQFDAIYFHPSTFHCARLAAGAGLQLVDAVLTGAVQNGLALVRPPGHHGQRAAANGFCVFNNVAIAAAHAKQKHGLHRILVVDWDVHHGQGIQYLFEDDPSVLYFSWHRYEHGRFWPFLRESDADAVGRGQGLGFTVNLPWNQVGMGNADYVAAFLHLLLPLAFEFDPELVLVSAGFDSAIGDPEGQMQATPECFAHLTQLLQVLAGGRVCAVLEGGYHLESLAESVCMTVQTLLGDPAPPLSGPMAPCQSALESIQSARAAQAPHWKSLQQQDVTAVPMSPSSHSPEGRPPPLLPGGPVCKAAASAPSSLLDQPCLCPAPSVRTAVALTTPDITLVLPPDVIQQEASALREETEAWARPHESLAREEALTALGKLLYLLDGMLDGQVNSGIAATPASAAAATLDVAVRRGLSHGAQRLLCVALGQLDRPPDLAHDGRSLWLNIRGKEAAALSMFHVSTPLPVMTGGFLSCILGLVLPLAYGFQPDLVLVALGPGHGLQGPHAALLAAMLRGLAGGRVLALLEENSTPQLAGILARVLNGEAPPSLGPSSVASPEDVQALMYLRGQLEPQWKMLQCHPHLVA

With `O=C(NO)c1ccc(CN(C2CC2)S(=O)(=O)c2cc(F)c(F)c(F)c2F)cc1` [Compound 14, 4-(((N-Cyclopropyl-2,3,4,5-tetrafluorophenyl)sulfonamido)methyl)-N-hydroxybenzamide], the IC50 against HDAC7, on HDAC1, against HDAC9, at HDAC5, against HDAC10 and against HDAC2 was more than 1 µM each time. In the data set on MRC-9, the IC50 – broadly, the concentration that inhibits the measured activity by half – is more than 20 µM. The “acetylated α-tubulin levels (Western blot)” value in the data set on acetylated α-tubulin is “comparable between citarinostat and KT-531”. The “acetylation of α-tubulin (immunofluorescence)” value in the data set on acetylation of α-tubulin was “significant acetylation of α-tubulin was observed”. Moreover, the “acetylation of histone H3 (immunofluorescence)” value in [1] is reported as “no observable change in acetylation of histone H3”. Moreover, the “cleavage of PARP-1 and Caspase-3” value in data set [2] was “Cleavage of PARP-1 and Caspase-3”. Moreover, the hepatocyte CLint (as a rule, the rate of metabolic loss divided by the concentration) at 2 h, 1 μM in data set [3] was 37.6 ± 0.6 µL/min/1e6 cells. For the same molecule, in data set [3] (setting [4]), the half-life at 1 μM came to 37 min. Moreover, the half-life at 2 h, 1 μM in [3] (setting [4]) came to 36.9 ± 0.59 min.

The values above are taken from PMC8237267 (Journal of Medicinal Chemistry, 2021).
